Assay results published in patent US9446064B2, “Combination therapy for treating cancer” (Epizyme, Inc., priority 2013, dated 2016).

Tests used:
[1] = test system: MV4-11 (MLL-AF4) cells; experiment: Combination proliferation study with Compound A2 (Cell Titer Glo, Chou-Talalay combination index); assay type: cell-based; settings: 7 day cotreatment
Procedure: (§1) The acute myelogenous leukemia cell lines MV4-11 (MLL-AF4) and MOLM-13 (MLL-AF9) were obtained from American Type Culture Collection (ATCC; Rockville, Md.) and Deutsche Sammlung von Mikroorganismen and Zellkulturen (DSMZ; Braunschweig, Germany) respectively.
(§2) Initial proliferation studies were performed to determine the IC50 of a given compound in each cell line.
(§3) Compounds were evaluated for synergy in the co-treatment phase by testing the compounds in a concentration range which was bracketed around their IC50 values. […] DMSO concentration was kept at 0.1% v/v.
(§4) Further, strong synergism is achieved when the CI value falls below 0.3.

[2] = test system: MOLM-13 (MLL-AF9) cells; experiment: as above; assay type: cell-based; settings: 7 day cotreatment
Procedure: as §1, §2, §3, §4

Row | SMILES | Combination effect with Compound A2 (combination index) [1] | Combination effect with Compound A2 (combination index) [2]
1 | N[C@@H]1C[C@H]1c1ccccc1 (racemic) [Tranylcypromine] | synergy | synergy
2 | Nc1ccn([C@@H]2O[C@H](CO)[C@@H](O)[C@@H]2O)c(=O)n1 [Ara-C] | Synergy (A combination index less than one indicates synergy) | 
3 | COc1cc2c(cc1-c1c(C)noc1C)ncc1[nH]c(=O)n([C@H](C)c3ccccn3)c12 [IBET-151] | Synergy (A combination index less than one indicates synergy) | 
4 | CC1(C)CCC(c2ccc(Cl)cc2)=C(CN2CCN(c3ccc(C(=O)NS(=O)(=O)c4ccc(N[C@H](CCN5CCOCC5)CSc5ccccc5)c(S(=O)(=O)C(F)(F)F)c4)cc3)CC2)C1 [Navitoclax] | synergy | synergy
5 | CC(C)(C)c1cc(NC(=O)Nc2ccc(-c3cn4c(n3)sc3cc(OCCN5CCOCC5)ccc34)cc2)no1 [Quizartinib] | synergy | 
